Test system: peripheral blood mononuclear cells (PBMCs), containing antigen presenting cells (APCs) and T-cells
Assay: naïve human T-cell proliferation assay (3H-thymidine incorporation, stimulation index)
Assay type: cell-based
Conditions: for predicted ranking of the most immunodominant regions: from numbers of responding naïve donors and crystallographic B-factor analysis; for number of donor samples reactive / percent of donor samples reactive: of 21 naïve donor PBMC samples, positive response SI>2
Excerpt: This approach has proven to be a particularly effective method and is disclosed herein as an embodiment of the invention. The method can be applied to test part of the sequence, for example a sub-set of bryodin 1 peptides such as all or some of those listed in FIG. 1; or the method may be applied to test entire sequence. In the present studies, the method has involved the testing of overlapping bryodin 1 derived peptide sequences in a scheme so as to scan and test the entire bryodin 1 sequence (including peptides representing the N-terminal pro-pepeptide). The synthetic peptides are tested for their ability to evoke a proliferative response in human T-cell cultured in vitro. Where this type of approach is conducted using naïve human T-cells taken from healthy donors, the inventors have established that in the operation of such an assay, a stimulation index equal to or greater than 2.0 is a useful measure of induced proliferation. The stimulation index is conventionally derived by division of the proliferation score (e.g. counts per minute of radioactivity if using ^3H-thymidine incorporation) measured to the test peptide by the score measured in cells not contacted with a test peptide.
The interaction between MHC, peptide and T-cell receptor (TCR) provides the structural basis for the antigen specificity of T-cell recognition. T-cell proliferation assays test the binding of peptides to MHC and the recognition of MHC/peptide complexes by the TCR. In vitro T-cell proliferation assays of the present example, involve the stimulation of peripheral blood mononuclear cells (PBMCs), containing antigen presenting cells (APCs) and T-cells. Stimulation is conducted in vitro using synthetic peptide antigens, and in some experiments whole protein antigen. Stimulated T-cell proliferation is measured using ^3H-thymidine (^3H-Thy) and the presence of incorporated ^3H-Thy assessed using scintillation counting of washed fixed cells.
Buffy coats from human blood stored for less than 12 hours were obtained from the National Blood Service (Addenbrooks Hospital, Cambridge, UK). Ficoll-paque was obtained from Amersham Pharmacia Biotech (Amersham, UK). Serum free AIM V media for the culture of primary human lymphocytes and containing L-glutamine, 50 μg/ml streptomycin, 10 μg/ml gentomycin and 0.1% human serum albumin was from Gibco-BRL (Paisley, UK). Synthetic peptides were obtained from Eurosequence (Groningen, The Netherlands) and Babraham Technix (Cambridge, UK).
Erythrocytes and leukocytes were separated from plasma and platelets by gentle centrifugation of buffy coats. The top phase (containing plasma and platelets) was removed and discarded. Erythrocytes and leukocytes were diluted 1:1 in phosphate buffered saline (PBS) before layering onto 15 ml ficoll-paque (Amersham Pharmacia, Amersham UK). Centrifugation was done according to the manufacturers recommended conditions and PBMCs were harvested from the serum+PBS/ficoll paque interface. PBMCs were mixed with PBS (1:1) and collected by centrifugation. The supernatant was removed and discarded and the PBMC pellet resuspended in 50 ml PBS. Cells were again pelleted by centrifugation and the PBS supernatant discarded. Cells were resuspended using 50 ml AIM V media and at this point counted and viability assessed using trypan blue dye exclusion. Cells were again collected by centrifugation and the supernatant discarded. Cells were resuspended for cryogenic storage at a density of 3×10^7 per ml. The storage medium was 90% (v/v) heat inactivated AB human serum (Sigma, Poole, UK) and 10% (v/v) DMSO (Sigma, Poole, UK). Cells were transferred to a regulated freezing container (Sigma) and placed at −70° C. overnight. When required for use, cells were thawed rapidly in a water bath at 37° C. before transferring to 10 ml pre-warmed AIM V medium.
PBMC were stimulated with protein and peptide antigens in a 96 well flat bottom plate at a density of 2×10^5 PBMC per well. […]

| Sequence | predicted ranking of the most immunodominant regions | number of donor samples reactive [donor samples] | percent of donor samples reactive |
| --- | --- | --- | --- |
| ATEAAKFVFKDAKKK [R2] | relatively less immunogenic | 3 | 14% |
| ATISLENNWSALSKQIQIAST [R5] | most immunogenic | 4 | 19% |
| ERLQTAAGKIRENIPLGLPALDSA [R3] |  | 3 | 14% |
| ITTLYYYTASSAASALLVLIQSTAESA [R4] |  | 5 | 24% |
| RYTLLHLTNYADETISVAVDV [R1] | most immunogenic | 6 | over 28% |

From patent US20060019885A1, “Modified bryodin 1 with reduced immunogenicity” (priority 2002, published 2006)
